Laboratory results as given in patent publication US8716303B2, “N-(hetero)aryl-pyrrolidine derivatives of pyrazol-4-yl-pyrrolo[2,3-d]pyrimidines and pyrrol-3-yl-pyrrolo[2,3-d]pyrimidines as janus kinase inhibitors” (Incyte Corporation, priority 2009, dated 2014).
Counter-ions that a name gives are not always drawn.

Legend:
[1] = biological target: T1, Jak2 (a.a. 828-1132) (Homo sapiens, UniProt O60674); assay: In vitro JAK kinase assay (HTRF, phosphorylation of a biotinylated peptide), JAK2, reported as JAK2/JAK1 ratio; format: biochemical
T1 construct: Jak2 (a.a. 828-1132); His tag (N); made in house; host or cells: insect cells (baculovirus)

[2] = biological target: T2, human JAK1 (a.a. 837-1142) (Homo sapiens, UniProt P23458); assay: In vitro JAK kinase assay (HTRF, phosphorylation of a biotinylated peptide), JAK1; format: biochemical
T2 construct: human JAK1 (a.a. 837-1142); His tag (N); made in house; host or cells: insect cells (baculovirus)
Summary of the method: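 His-tagged catalytic domains (JAK1 a.a. 837-1142, JAK2 a.a. 828-1132) from insect cells phosphorylate 500 nM biotinylated peptide in 50 mM Tris pH 7.8, 100 mM NaCl, 5 mM DTT; ATP at Km (90 μM JAK1, 30 μM JAK2) or 1 mM, as indicated. 1 h at RT; EDTA stop, HTRF readout; IC50s.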

[3] = Assay Conditions Km (ATP 90 μM for Jak1, 30 μM for Jak2)
[4] = Assay Conditions Km (ATP 90 μM for Jak1)

T1 sequence (O60674 828-1132): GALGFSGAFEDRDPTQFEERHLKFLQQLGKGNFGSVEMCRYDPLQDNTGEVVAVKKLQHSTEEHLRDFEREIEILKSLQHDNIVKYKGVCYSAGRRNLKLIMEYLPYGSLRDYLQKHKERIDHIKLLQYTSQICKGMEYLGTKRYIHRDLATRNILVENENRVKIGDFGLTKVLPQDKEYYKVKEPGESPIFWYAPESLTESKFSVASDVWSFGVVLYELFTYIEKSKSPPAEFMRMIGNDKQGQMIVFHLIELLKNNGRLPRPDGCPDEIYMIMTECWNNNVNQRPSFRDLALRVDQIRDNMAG
T2 sequence (P23458 849-1154): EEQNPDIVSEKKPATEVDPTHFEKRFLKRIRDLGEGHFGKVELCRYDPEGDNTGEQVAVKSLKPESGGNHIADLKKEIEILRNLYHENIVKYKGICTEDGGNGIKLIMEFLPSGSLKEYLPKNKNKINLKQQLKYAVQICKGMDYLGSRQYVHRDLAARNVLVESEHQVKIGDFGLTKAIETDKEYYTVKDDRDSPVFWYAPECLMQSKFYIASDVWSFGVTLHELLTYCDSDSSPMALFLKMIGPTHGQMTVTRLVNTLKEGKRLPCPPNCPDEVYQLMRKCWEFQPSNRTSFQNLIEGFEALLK

Row | SMILES | JAK2/JAK1 IC50 ratio ([1]; Assay Conditions 1 mM ATP) | IC50 ([2]; Assay Conditions 1 mM ATP) [nM] | JAK2/JAK1 IC50 ratio [1, 3] | IC50 [2, 4] [nM]
1 | N#CCC(C1CCN(c2ccc3ccsc3n2)C1)n1cc(-c2ncnc3[nH]ccc23)cn1 (single isomer, unassigned) [Example 156, 3-[4-(7H-pyrrolo[2,3-d]pyrimidin-4-yl)-1H-pyrazol-1-yl]-3-(1-thieno[2,3-b]pyridin-6-ylpyrrolidin-3-yl)propanenitrile] | 8.0 | < 50 |  | 
2 | N#CC[C@@H]([C@H]1CCN(c2ncc(Br)s2)C1)n1cc(-c2ncnc3[nH]ccc23)cn1 [Example 47, (3S)-3-[(3S)-1-(5-bromo-1,3-thiazol-2-yl)pyrrolidin-3-yl]-3-[4-(7H-pyrrolo[2,3-d]pyrimidin-4-yl)-1H-pyrazol-1-yl]propanenitrile trifluoroacetate] | 6.9 | < 50 |  | 
3 | N#Cc1nnccc1N1CC[C@H](C(CF)n2cc(-c3ncnc4[nH]ccc34)cn2)C1 (single isomer, unassigned) [Example 116] | 6.0 | < 50 |  | 
4 | Cc1cnc2oc(N3CCC(C(CC#N)n4cc(-c5ncnc6[nH]ccc56)cn4)C3)nc2c1 (single isomer, unassigned) [Example 14, 3-[1-(6-methyl[1,3]oxazolo[5,4-b]pyridin-2-yl)pyrrolidin-3-yl]-3-[4-(7H-pyrrolo[2,3-d]pyrimidin-4-yl)-1H-pyrazol-1-yl]propanenitrile] |  |  | 4 | < 50
5 | N#CCC(C1CCN(c2ncc3ccsc3c2C#N)C1)n1ccc(-c2ncnc3[nH]ccc23)c1 (racemic) [Example 176-rac, 6-(3-{2-cyano-1-[3-(7H-pyrrolo[2,3-d]pyrimidin-4-yl)-1H-pyrrol-1-yl]ethyl}pyrrolidin-1-yl)thieno[3,2-c]pyridine-7-carbonitrile] | 53.3 | < 50 |  | 
6 | N#CCC(C1CCN(c2nc3cccc(F)c3o2)C1)n1ccc(-c2ncnc3[nH]ccc23)c1 (single isomer, unassigned) [Example 158-2, 3-[1-(7-fluoro-1,3-benzoxazol-2-yl)pyrrolidin-3-yl]-3-[3-(7H-pyrrolo[2,3-d]pyrimidin-4-yl)-1H-pyrrol-1-yl]propanenitrile] | 19.0 | < 50 |  | 
7 | C[S+]([O-])c1nccc(N2CCC(C(CC#N)n3cc(-c4ncnc5[nH]ccc45)cn3)C2)n1 (single isomer, unassigned) [Example 24, 3-{1-[2-(methylsulfinyl)pyrimidin-4-yl]pyrrolidin-3-yl}-3-[4-(7H-pyrrolo[2,3-d]pyrimidin-4-yl)-1H-pyrazol-1-yl]propanenitrile] | 2.5 | < 50 |  | 
8 | N#CCC(C1CCN(c2scnc2C#N)C1)n1ccc(-c2ncnc3[nH]ccc23)c1 (racemic) [Example 149-rac, 5-(3-{2-cyano-1-[3-(7H-pyrrolo[2,3-d]pyrimidin-4-yl)-1H-pyrrol-1-yl]ethyl}pyrrolidin-1-yl)-1,3-thiazole-4-carbonitrile] | 14.5 | < 50 |  | 
9 | CS(=O)(=O)c1ccnc(N2CC[C@H]([C@H](CC#N)n3cc(-c4ncnc5[nH]ccc45)cn3)C2)c1C#N [Example 128, 2-((3S)-3-{(1S)-2-cyano-1-[4-(7H-pyrrolo[2,3-d]pyrimidin-4-yl)-1H-pyrazol-1-yl]ethyl}pyrrolidin-1-yl)-4-(methylsulfonyl)nicotinonitrile] | 4.7 | < 50 |  | 
10 | N#CCC(C1CCN(c2ccc3cccc(Cl)c3n2)C1)n1cc(-c2ncnc3[nH]ccc23)cn1 (racemic) [Example 42, ±3-[1-(8-chloroquinolin-2-yl)pyrrolidin-3-yl]-3-[4-(7H-pyrrolo[2,3-d]pyrimidin-4-yl)-1H-pyrazol-1-yl]propanenitrile] |  |  | 6.0 | < 50
11 | N#CC[C@@H]([C@H]1CCN(c2nc(Cl)ccc2F)C1)n1cc(-c2ncnc3[nH]ccc23)cn1 [Example 94, (3S)-3-[(3S)-1-(6-chloro-3-fluoropyridin-2-yl)pyrrolidin-3-yl]-3-[4-(7H-pyrrolo[2,3-d]pyrimidin-4-yl)-1H-pyrazol-1-yl]propanenitrile trifluoroacetate] | 17.9 | < 50 |  | 
12 | N#CC[C@@H]([C@H]1CCN(c2ccc(F)c(F)c2C#N)C1)n1cc(-c2ncnc3[nH]ccc23)cn1 [Example 60, 6-((3S)-3-{(1S)-2-cyano-1-[4-(7H-pyrrolo[2,3-d]pyrimidin-4-yl)-1H-pyrazol-1-yl]ethyl}pyrrolidin-1-yl)-2,3-difluorobenzonitrile trifluoroacetate salt] | 6.6 | < 50 |  | 
13 | N#CC[C@@H]([C@H]1CCN(c2cccc(C#N)c2C#N)C1)n1cc(-c2ncnc3[nH]ccc23)cn1 [Example 49, 3-((3S)-3-{(1S)-2-cyano-1-[4-(7H-pyrrolo[2,3-d]pyrimidin-4-yl)-1H-pyrazol-1-yl]ethyl}pyrrolidin-1-yl)phthalonitrile trifluoroacetate] | 10.2 | < 50 |  | 
14 | N#CCC(C1CCN(c2ncc3cccc(F)c3n2)C1)n1cc(-c2ncnc3[nH]ccc23)cn1 (stereo not drawn) [Example 46, 3-[1-(8-fluoroquinazolin-2-yl)pyrrolidin-3-yl]-3-[4-(7H-pyrrolo[2,3-d]pyrimidin-4-yl)-1H-pyrazol-1-yl]propanenitrile] | 3.7 | < 50 |  | 
15 | CC(O)c1cnc(N2CC[C@H]([C@H](CC#N)n3cc(-c4ncnc5[nH]ccc45)cn3)C2)c(C#N)n1 (stereo partly drawn) [Example 146, 3-((3S)-3-{(1S)-2-cyano-1-[4-(7H-pyrrolo[2,3-d]pyrimidin-4-yl)-1H-pyrazol-1-yl]ethyl}pyrrolidin-1-yl)-6-(1-hydroxyethyl)pyrazine-2-carbonitrile trifluoroacetate] | >4.8 | < 50 |  | 
16 | N#CC[C@@H]([C@H]1CCN(c2nc(Cl)c(C#N)cc2F)C1)n1cc(-c2ncnc3[nH]ccc23)cn1 [Example 63, 6-((S)-3-((S)-1-(4-(7H-pyrrolo[2,3-d]pyrimidin-4-yl)-1H-pyrazol-1-yl)-2-cyanoethyl)pyrrolidin-1-yl)-2-chloro-5-fluoronicotinonitrile trifluoroacetate salt] | 7.3 | < 50 |  | 
17 | N#CC[C@@H]([C@H]1CCN(c2ncc(F)cc2C#N)C1)n1cc(-c2ncnc3[nH]ccc23)cn1 [Example 108, 2-((S)-3-((S)-1-(4-(7H-pyrrolo[2,3-d]pyrimidin-4-yl)-1H-pyrazol-1-yl)-2-cyanoethyl)pyrrolidin-1-yl)-5-fluoronicotinonitrile trifluoroacetate salt] | 5.7 | < 50 |  | 
18 | N#CC[C@@H]([C@H]1CCN(c2ccc(Cl)nc2Cl)C1)n1cc(-c2ncnc3[nH]ccc23)cn1 [Example 125, (3S)-3-[(3S)-1-(2,6-dichloropyridin-3-yl)pyrrolidin-3-yl]-3-[4-(7H-pyrrolo[2,3-d]pyrimidin-4-yl)-1H-pyrazol-1-yl]propanenitrile trifluoroacetate] | 132.5 | < 50 |  | 
19 | N#CCC(C1CCN(c2nc3cccnc3o2)C1)n1ccc(-c2ncnc3[nH]ccc23)c1 (single isomer, unassigned) [Example 33, 3-(1-[1,3]oxazolo[5,4-b]pyridin-2-ylpyrrolidin-3-yl)-3-[3-(7H-pyrrolo[2,3-d]pyrimidin-4-yl)-1H-pyrrol-1-yl]propanenitrile phosphate] | 34 | < 50 |  | 
20 | N#CC[C@@H]([C@H]1CCN(c2nc(S(=O)(=O)CC(F)(F)F)c(F)cc2F)C1)n1cc(-c2ncnc3[nH]ccc23)cn1 [Example 131, (3S)-3-((3S)-1-{3,5-difluoro-6-[(2,2,2-trifluoroethyl)-sulfonyl]pyridin-2-yl}pyrrolidin-3-yl)-3-[4-(7H-pyrrolo[2,3-d]pyrimidin-4-yl)-1H-pyrazol-1-yl]propanenitrile trifluoroacetate] | 8.1 | < 50 |  | 
21 | N#CC[C@@H]([C@H]1CCN(c2c(F)cc(F)c(F)c2C#N)C1)n1cc(-c2ncnc3[nH]ccc23)cn1 [Example 61, 2-((3S)-3-{(1S)-2-cyano-1-[4-(7H-pyrrolo[2,3-d]pyrimidin-4-yl)-1H-pyrazol-1-yl]ethyl}pyrrolidin-1-yl)-3,5,6-trifluorobenzonitrile trifluoroacetate salt] | 6.4 | < 50 |  | 
22 | N#CC[C@@H]([C@H]1CCN(c2c(C#N)cccc2C#N)C1)n1cc(-c2ncnc3[nH]ccc23)cn1 [Example 59, 2-((3S)-3-{(1S)-2-cyano-1-[4-(7H-pyrrolo[2,3-d]pyrimidin-4-yl)-1H-pyrazol-1-yl]ethyl}pyrrolidin-1-yl)isophthalonitrile trifluoroacetate salt] | 6.5 | < 50 |  | 
23 | N#Cc1ccnc(N2CC[C@H](C(CF)n3cc(-c4ncnc5[nH]ccc45)cn3)C2)c1C#N (stereo partly drawn) [Example 120, 2-((3S)-3-(1-(4-(7H-pyrrolo[2,3-d]pyrimidin-4-yl)-1H-pyrazol-1-yl)-2-fluoroethyl)pyrrolidin-1-yl)pyridine-3,4-dicarbonitrile trifluoroacetate] | 3.5 | < 50 |  | 
24 | N#CCC(C1CCN(c2nc3cccc(F)c3o2)C1)n1cc(-c2ncnc3[nH]ccc23)cn1 (single isomer, unassigned) [Example 21, 3-[1-(7-fluoro-1,3-benzoxazol-2-yl)pyrrolidin-3-yl]-3-[4-(7H-pyrrolo[2,3-d]pyrimidin-4-yl)-1H-pyrazol-1-yl]propanenitrile] | 31.8 | < 50 |  | 
